Here are results for two compounds from patent publication US4387102A, “4-(N-(3',4'-Methylenedioxybenzylidene)-aminomethyl)cyclohex ane-1-carboxylic acid and derivatives thereof and pharmaceutical composition thereof” (Kureha Kagaku Kogyo Kabushiki Kaisha, priority 1980, dated 1983).

Series [1] has as its system polymorphonuclear leukocytes. Put plainly: Inhibition of migration of polymorphonuclear leukocytes to the inflammatory region (Granuloma-CMC-Pouch method). The note with it: single oral dose, male Donryu rats, present compound 100 mg/kg, indomethacin 10 mg/kg (footnote). The format is in vivo, rat. As to the method: Tests for inhibition of migration of polymorphonuclear leukocytes to the inflammatory region due to sodium 4-[N-(3',4'-methylenedioxybenzylidene)aminomethyl]cyclohexane-1-carboxylate were carried out following the method of Granuloma-CMC-Pouch (refer to Ishikawa et al. J. Pharmaceut. Soc. Jap., Vol. 88, page 1472, 1968).
Namely, after cutting the hair on the back of male rats (Donryu, body weight: 150 g), 5 ml of air was injected subcutaneously into the hair-cut region and further, 5 ml of aqueous 2% (W/V) solution of sodium carboxymethyl cellulose (CMC) at 37° C. was injected.
Specimens of the liquid (0.5 ml, each) effused into the pouch were collected at 3, 6 and 24 hours after 2% CMC solution were injected respectively and then the number of polymorphonuclear leukocytes in the specimen was counted after staining to determine the rate of inhibition of migration of the polymorpholeukocyte as compared to the number of the polymorpholeukocytes in the specimen collected from control animal to which the aqueous CMC solution was injected after air injection.
In this test, sodium 4-[N-(3',4'-methylenedioxybenzylidene)aminomethyl]cyclohexane-1-carboxylate was orally administered as a solution in aqueous physiological saline solution at a dose of 100 mg/kg at the time of injecting the solution of CMC, and as a control, […] at the time of injecting the solution of CMC.

In the next series the test system is female JCL-ICR mice. Description: Acute oral toxicity test. The format is in vivo, mouse. The following applies: 3000 mg/kg, female JCL-ICR mice of five weeks. As to the method:
(5-2) Acute oral toxicity test were carried out by orally administering aqueous solutions of sodium 4-[N-(3',4'-methylenedioxybenzylidene)aminomethyl]cyclohexane-1-carboxylate to groups of female JCL-ICR mice of five weeks after birth.

The next series relates to rabbit's platelets. Put plainly: Inhibition of blood platelet aggregation induced by sodium arachidonate (platelet aggregation tracer PAT 4A). Type of series: cell-based. The note with it: 400 micromols sodium arachidonate. As to the method: (5-1) Test for inhibition of platelet aggregation was carried out while using rabbit's platelets, an aqueous physiological saline solution of sodium 4-[N-([…]-methylenedioxybenzylidene)aminomethyl]cyclohexane-1-carboxylate and 400 micromols of sodium arachidonate as the aggregation agent in a platelet aggregation tracer PAT 4A (made by Niko Bioscience Company, Japan) as the testing apparatus.

Where [2] appears, read: 3 hours of injection of CMC, control 3.5 × 10^3.
The mark [3] stands for this setting: 6 hours of injection of CMC, control 5.9 × 10^3.
Where [4] appears, read: 24 hours of injection of CMC, control 14.9 × 10^3.

`COc1ccc2c(c1)c(CC(=O)O)c(C)n2C(=O)c1ccc(Cl)cc1` [Indomethacin, indomethacin, reference compound]: the “R.I. (inhibitory rate of migration of polymorphonuclear leukocytes into the pouch as compared to control)” value in series [1] (3 hours of injection of CMC) came to 34%; in series [1] (6 hours of injection of CMC) it was 31%; in series [1] (24 hours of injection of CMC) it was 28%. Besides, the “Number of polymorphonuclear leukocytes” value in series [1] (setting [2]) is 2.3 × 10^3 Number/mm^3; in series [1] (setting [3]), 4.1 × 10^3 Number/mm^3; in series [1] (setting [4]), 10.8 × 10^3 Number/mm^3.

Turning to `O=C([O-])C1CCC(CN=Cc2ccc3c(c2)OCO3)CC1.[Na+]` (stereo not shown) [Present compound, sodium 4-[N-(3',4'-methylenedioxybenzylidene)aminomethyl]cyclohexane-1-carboxylate], the “abnormality in acute oral toxicity test” value in the series with female JCL-ICR mice is listed as “no abnormality was found”. For the same compound, the “percent of inhibition of the aggregation of the platelets by sodium arachidonate” value with rabbit's platelets (500 micromols compound) is on record as 30%; in the series with rabbit's platelets (1000 micromols compound) it was 75%; in the series on rabbit's platelets (1500 micromols compound), 100%. Moreover, the “R.I. (inhibitory rate of migration of polymorphonuclear leukocytes into the pouch as compared to control)” value in series [1] (3 hours of injection of CMC) turned out to be 46%; in series [1] (6 hours of injection of CMC) it was 54%; in series [1] (24 hours of injection of CMC), 32%. Also, the “Number of polymorphonuclear leukocytes” value in series [1] (setting [2]) is 1.9 × 10^3 Number/mm^3; in series [1] (setting [3]) it was 2.7 × 10^3 Number/mm^3; in series [1] (setting [4]), 10.1 × 10^3 Number/mm^3.
